From ChEMBL document CHEMBL1136034, “Selective urokinase-type plasminogen activator (uPA) inhibitors. Part 1: 2-Pyridinylguanidines” (Bioorg Med Chem Lett, 2002)

Experiments:
[1] = molecular target: T1, Tissue-type plasminogen activator (Homo sapiens, UniProt P00750); experiment: Inhibition of human tissue plasminogen activator stimulator at 1 mM
Target sequence in this assay (P00750 36-562 limits assumed): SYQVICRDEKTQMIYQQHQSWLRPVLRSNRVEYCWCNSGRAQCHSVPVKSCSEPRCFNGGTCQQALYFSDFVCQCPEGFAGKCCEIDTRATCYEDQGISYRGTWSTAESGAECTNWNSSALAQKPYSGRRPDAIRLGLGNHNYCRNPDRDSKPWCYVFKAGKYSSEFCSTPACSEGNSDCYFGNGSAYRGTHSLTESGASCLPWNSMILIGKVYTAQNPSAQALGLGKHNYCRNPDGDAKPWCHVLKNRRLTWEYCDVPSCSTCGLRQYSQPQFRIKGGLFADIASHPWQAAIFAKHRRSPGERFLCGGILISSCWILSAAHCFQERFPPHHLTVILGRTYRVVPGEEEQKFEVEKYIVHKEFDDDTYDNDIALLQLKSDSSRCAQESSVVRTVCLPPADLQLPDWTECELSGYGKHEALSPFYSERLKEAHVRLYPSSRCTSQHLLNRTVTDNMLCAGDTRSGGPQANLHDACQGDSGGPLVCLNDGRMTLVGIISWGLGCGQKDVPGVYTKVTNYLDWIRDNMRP

[2] = molecular target: T2, Plasminogen (Homo sapiens, UniProt P00747); experiment: Inhibition of human plasmin with Chromozym-PL at 1 mM
[3] = molecular target: T3, Urokinase-type plasminogen activator (Homo sapiens, UniProt P00749); experiment: In vitro inhibition of HWMT human urokinase Plasminogen activator.
[4] = molecular target: T3, Urokinase-type plasminogen activator; experiment: Ability to inhibit microPa (calbiochem) and S-2444 (quadratech) as substrate at concentration of 1 uM
[5] = molecular target: T2, Plasminogen; experiment: Ability to inhibit human plasmin using Chromozym-PL as substrate at concentration of 1 uM
[6] = molecular target: T1, Tissue-type plasminogen activator; experiment: Ability to inhibit human tissue plasminogen activator stimulator at concentration of 1 uM
Target sequence in this assay (P00750 36-562 limits assumed): as above

[7] = molecular target: T1, Tissue-type plasminogen activator; experiment: Ability to inhibit human tissue plasminogen activator stimulator at concentration of 1 mM
Target sequence in this assay (P00750 36-562 limits assumed): as above

[8] = molecular target: T2, Plasminogen; experiment: Ability to inhibit human plasmin using Chromozym-PL as substrate
[9] = molecular target: T2, Plasminogen; experiment: Ability to inhibit human plasmin using Chromozym-PL as substrate at concentration of 30 uM
[10] = molecular target: T3, Urokinase-type plasminogen activator; experiment: Ability to inhibit microPa (calbiochem) and S-2444 (quadratech) as substrate at concentration of 100 uM
[11] = molecular target: T1, Tissue-type plasminogen activator; experiment: Ability to inhibit human tissue plasminogen activator stimulator at concentration of 100 uM
Target sequence in this assay (P00750 36-562 limits assumed): as above

[12] = molecular target: T1, Tissue-type plasminogen activator; experiment: Ability to inhibit human tissue plasminogen activator stimulator
Target sequence in this assay (P00750 whole entry): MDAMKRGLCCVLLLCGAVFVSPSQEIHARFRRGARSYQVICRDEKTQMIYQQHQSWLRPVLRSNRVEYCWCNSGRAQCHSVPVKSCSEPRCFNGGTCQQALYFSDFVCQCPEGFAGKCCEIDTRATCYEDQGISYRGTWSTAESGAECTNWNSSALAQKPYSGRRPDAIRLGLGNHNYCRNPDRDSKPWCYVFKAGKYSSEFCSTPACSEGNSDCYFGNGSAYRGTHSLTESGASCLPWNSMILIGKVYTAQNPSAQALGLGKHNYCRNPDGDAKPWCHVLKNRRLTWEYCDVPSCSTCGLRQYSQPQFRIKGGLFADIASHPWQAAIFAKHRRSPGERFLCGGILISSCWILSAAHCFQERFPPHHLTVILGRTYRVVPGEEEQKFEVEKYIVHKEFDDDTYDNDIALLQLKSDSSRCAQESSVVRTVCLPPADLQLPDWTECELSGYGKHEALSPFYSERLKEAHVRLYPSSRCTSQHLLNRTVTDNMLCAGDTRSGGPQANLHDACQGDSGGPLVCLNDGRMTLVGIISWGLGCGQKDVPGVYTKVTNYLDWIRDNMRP

[13] = molecular target: T1, Tissue-type plasminogen activator; experiment: Ability to inhibit human tissue plasminogen activator stimulator at concentration of 30 uM
Target sequence in this assay (P00750 36-562 limits assumed): as the sequence (P00750 36-562 limits assumed) above

[14] = molecular target: T3, Urokinase-type plasminogen activator; experiment: Ability to inhibit microPa (calbiochem) and S-2444 (quadratech) as substrate at concentration of 30 uM

T2 sequence (P00747 97-580 limits assumed): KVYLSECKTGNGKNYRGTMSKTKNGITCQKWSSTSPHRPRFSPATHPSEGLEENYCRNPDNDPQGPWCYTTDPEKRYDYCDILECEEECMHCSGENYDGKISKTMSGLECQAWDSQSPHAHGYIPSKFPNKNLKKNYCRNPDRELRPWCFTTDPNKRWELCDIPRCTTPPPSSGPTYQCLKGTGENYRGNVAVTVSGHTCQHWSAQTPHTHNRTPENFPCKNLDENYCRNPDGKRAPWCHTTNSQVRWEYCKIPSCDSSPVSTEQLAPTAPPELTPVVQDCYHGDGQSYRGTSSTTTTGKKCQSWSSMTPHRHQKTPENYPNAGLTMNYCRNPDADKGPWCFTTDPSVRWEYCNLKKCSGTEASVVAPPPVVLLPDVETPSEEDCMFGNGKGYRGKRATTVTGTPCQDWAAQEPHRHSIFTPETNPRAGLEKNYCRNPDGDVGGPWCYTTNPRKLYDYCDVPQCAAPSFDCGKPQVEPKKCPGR
T2 sequence (P00747 581-810 limits assumed): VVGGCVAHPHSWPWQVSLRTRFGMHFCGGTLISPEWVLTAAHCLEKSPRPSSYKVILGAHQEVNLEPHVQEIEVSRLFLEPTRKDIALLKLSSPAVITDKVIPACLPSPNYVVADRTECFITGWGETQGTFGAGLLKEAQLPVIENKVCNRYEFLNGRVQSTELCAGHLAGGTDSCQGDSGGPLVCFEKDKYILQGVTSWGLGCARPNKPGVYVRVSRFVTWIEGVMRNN

inhibition [1] [%] | inhibition [2] [%] | Ki [3] [µM] | Compound | further results
< 50 | < 50 | 3.13 | N=C(N)Nc1ccc(Br)cn1 | –
– | – | – | N=C(N)Nc1ccncn1 | inhibition [4]: < 50%; inhibition [5]: < 50%; inhibition [6]: < 50%
– | < 50 | 83.8 | Cc1ccnc(NC(=N)N)c1 | inhibition [7]: < 50%
– | – | 147 | NC(N)=Nc1ncccc1O | –
– | – | – | N=C(N)Nc1cnccn1 | inhibition [4]: < 50%; inhibition [5]: < 50%; inhibition [6]: < 50%
< 50 | < 50 | – | N=C(N)Nc1ccc(Cl)cn1 | –
< 50 | < 50 | – | COc1ccnc(NC(=N)N)c1 | –
< 50 | – | – | COc1cccnc1N=C(N)N | Ki [8]: < 232 µM
– | – | – | N=C(N)Nc1cccnn1 | inhibition [9]: < 50%; inhibition [10]: < 50%; inhibition [11]: < 50%
< 50 | – | – | Cc1c(Cl)cnc(N=C(N)N)c1Cl | Ki [8]: 176 µM
< 50 | < 50 | – | N=C(N)Nc1ncc(Br)cc1Cl | –
– | – | 2.9 | NC(N)=Nc1ncc(Br)cc1Cl | –
– | – | – | N=C(N)Nc1ccc(Cl)cc1 | Ki [8]: < 50 µM; inhibition [7]: < 50%
– | – | 5.47 | NC(N)=Nc1ncc(Cl)cc1Cl | –
< 50 | < 50 | – | N=C(N)Nc1ncc(C(F)(F)F)cc1Cl | –
– | < 50 | – | N=C(N)Nc1ncc(Cl)cc1Br | –
– | – | 29.5 | N=C(N)Nc1ccccn1 | inhibition [5]: < 50%; inhibition [6]: < 50%
< 50 | – | 32.3 | Cc1ccc(NC(=N)N)nc1 | –
– | – | 292 | N=C(N)Nc1ncccn1 | inhibition [5]: < 50%; inhibition [6]: < 50%
< 50 | < 50 | – | N=C(N)Nc1ncc(Cl)cc1Cl | –
54 | < 50 | – | N=C(N)Nc1cc(-c2ccccc2)ccn1 | –
< 50 | < 50 | – | N=C(N)Nc1ncccc1O | –
< 50 | < 50 | 173 | Cc1cccc(N=C(N)N)n1 | –
– | – | – | NC(N)=Nc1ncc(Cl)cc1Br | Ki [12]: 272 µM
– | < 50 | 37.7 | Cc1cccnc1N=C(N)N | inhibition [7]: < 50%
– | – | – | N=C(N)Nc1ccncc1 | Ki [8]: 16.9 µM; inhibition [13]: < 50%; inhibition [14]: < 50%
– | – | – | N=C(N)Nc1cccnc1 | inhibition [4]: < 50%; inhibition [5]: < 50%; inhibition [6]: < 50%
